Test results taken from patent US9067934B2, “Bicyclic pyridinones” (Pfizer Inc., priority 2011, dated 2015).
Where a name gives a salt, the structure may show the parent alone.

System: production of amyloid beta protein Aβ(1-42) (γ-secretase) in human WT-APP overexpressing CHO cells
Experiment: Cell-Based γ-Secretase Assay with ELISA Readout
Conditions: human WT-APP overexpressing CHO cells, ~24 hours at 37° C., Aβ(1-42) ELISA; footnotes: a = geometric mean of >15 determinations, b = single determination, c = geometric mean of 7-15 determinations; read-out: Aβ 42B IC50 (Geometric Mean of 2-6 Determinations)
Description: Cell-Based γ-Secretase Assay with ELISA Readout
The ability of compounds to modulate production of amyloid beta protein Aβ(1-42) was determined using human WT-APP overexpressing CHO cells. Cells were plated at 22,000 cells/100 μL well in 96 well tissue culture treated, clear plates (Falcon) in DMEM/F12 based medium and incubated for 24 hours at 37° C. Compounds for testing were diluted in 100% DMSO to achieve an eleven points, half log, dose response for IC50 determinations. Compounds were added in fresh medium to achieve 1% final DMSO. Appropriate vehicle or inhibitor controls were added into control wells individually to obtain minimum or maximum inhibition values, respectively, for the assay signal window before the plates were incubated for ˜24 hours at 37° C. This procedure produces conditioned media in each well which is tested for Aβ(1-42) levels in the ELISA detection step described next. The remaining cell cultures in each well are also tested for cell toxicity as described below.
Coating of ELISA assay plates was initiated by addition of 50 μL/well of an in-house Aβ(1-42) specific antibody at (3 μg/mL) in 0.1 M NaHCO3 (pH 9.0) into black 384-well Maxisorp® plates (Nunc) and incubated overnight at 4° C. The capture antibody was then aspirated from the ELISA assay plates and plates were washed 4×100 μL with Wash Buffer (Dulbecco's PBS, 0.05% Tween 20). 90 μL/well of Blocking Buffer (Dulbecco's PBS, 1.0% BSA (Sigma A7030)) was then added to plates. Ambient temperature incubation was allowed to proceed for a minimum of two hours. Blocking buffer was then removed and 20 μL/well Assay Buffer (Dulbecco's PBS, 1.0% BSA (Sigma A7030), 0.05% Tween 20) was then added. At this point, 40 μL (in duplicate) of experimental conditioned media (described above) were transferred into wells of the blocked ELISA plates containing the capture antibody, followed by overnight incubation at 4° C. Cell toxicity was also measured in the corresponding remaining cells after removal of the conditioned media for the Aβ(1-42) assay by a colorimetric cell proliferation assay (CellTiter 96® AQueous One Solution Cell Proliferation Assay, Promega) according to the manufacturer's instructions.
After overnight incubation of the ELISA assay plates at 4° C., unbound Aβ peptides were removed via (4×100 μL) washes with Wash Buffer. Europium (Eu) labeled (custom labeled, Perkin Elmer) Aβ(1-16) 6e10 Monoclonal Antibody (Covance #SIG-39320) was added, (50 μL/well Eu-6e10 @ 1:10,000, 20 uM EDTA) in Assay Buffer. Incubation at ambient temperature for a minimum of 2 hours was followed by (4×100 μL) washes with Wash Buffer, before 30 μL/well of Delfia Enhancement Solution (Perkin Elmer) was added. Following an one hour ambient temperature incubation, the plates were read on an EnVision plate reader (Perkin Elmer) using standard DELFIA TRF settings. Data analysis including inhibitory IC50 determination was performed using nonlinear regression fit analysis (in-house software) and the appropriate plate mean values for the maximum and minimum inhibition controls.

SMILES	IC50 [nM]
Cc1cn(-c2ccc3n(c2=O)CCN(CCOc2ccc(Cl)cc2C(F)(F)F)C3=O)cn1 [Example 22, 2-{2-[4-chloro-2-(trifluoromethyl)phenoxy]ethyl}-7-(4-methyl-1H-imidazol-1-yl)-3,4-dihydro-2H-pyrido[1,2-a]pyrazine-1,6-dione]	103
Cc1cn(-c2ccc3n(c2=O)CCN(CCOc2ccc(F)c(Cl)c2Cl)C3=O)cn1 [Example 23, 2-[2-(2,3-dichloro-4-fluorophenoxy)ethyl]-7-(4-methyl-1H-imidazol-1-yl)-3,4-dihydro-2H-pyrido[1,2-a]pyrazine-1,6-dione]	173
Cc1cn(-c2ccc3n(c2=O)CCN(CCOc2ccccc2-c2cc(C)ns2)C3=O)cn1 [Example 24, 7-(4-methyl-1H-imidazol-1-yl)-2-{2-[2-(3-methylisothiazol-5-yl)phenoxy]ethyl}-3,4-dihydro-2H-pyrido[1,2-a]pyrazine-1,6-dione]	104
Cc1cn(-c2ccc3n(c2=O)CCN(CCOc2ccccc2C2CCC2)C3=O)cn1 [Example 25, 2-[2-(2-cyclobutylphenoxy)ethyl]-7-(4-methyl-1H-imidazol-1-yl)-3,4-dihydro-2H-pyrido[1,2-a]pyrazine-1,6-dione]	73.2
Cc1cn(-c2ccc3n(c2=O)CCN(CCOc2cccc4c2oc2ccccc24)C3=O)cn1 [Example 26, 2-[2-(dibenzo[b,d]furan-4-yloxy)ethyl]-7-(4-methyl-1H-imidazol-1-yl)-3,4-dihydro-2H-pyrido[1,2-a]pyrazine-1,6-dione]	95.7
Cc1cn(-c2ccc3n(c2=O)CCN(CCOc2ccc(Cl)c(Cl)c2Cl)C3=O)cn1 [Example 27, 7-(4-methyl-1H-imidazol-1-yl)-2-[2-(2,3,4-trichlorophenoxy)ethyl]-3,4-dihydro-2H-pyrido[1,2-a]pyrazine-1,6-dione]	103
Cc1cn(-c2ccc3n(c2=O)CCN(CCCOc2cc(C)c(Cl)c(C)c2)C3=O)cn1 [Example 28, 2-[3-(4-chloro-3,5-dimethylphenoxy)propyl]-7-(4-methyl-1H-imidazol-1-yl)-3,4-dihydro-2H-pyrido[1,2-a]pyrazine-1,6-dione]	31.9
Cc1cn(-c2ccc3n(c2=O)CCN(CCOc2ccc(C(F)(F)F)cc2C(F)(F)F)C3=O)cn1 [Example 29, 2-{2-[2,4-bis(trifluoromethyl)phenoxy]ethyl}-7-(4-methyl-1H-imidazol-1-yl)-3,4-dihydro-2H-pyrido[1,2-a]pyrazine-1,6-dione]	154
Cc1cn(-c2ccc3n(c2=O)CCN(CCOc2cc(Cl)c(Cl)cc2Cl)C3=O)cn1 [Example 30, 7-(4-methyl-1H-imidazol-1-yl)-2-[2-(2,4,5-trichlorophenoxy)ethyl]-3,4-dihydro-2H-pyrido[1,2-a]pyrazine-1,6-dione]	132
Cc1cn(-c2ccc3n(c2=O)CCN(CCOc2ccc(C(F)(F)F)nc2C(F)(F)F)C3=O)cn1 [Example 31, 2-(2-{[2,6-bis(trifluoromethyl)pyridin-3-yl]oxy}ethyl)-7-(4-methyl-1H-imidazol-1-yl)-3,4-dihydro-2H-pyrido[1,2-a]pyrazine-1,6-dione]	96.8
Cc1cn(-c2ccc3n(c2=O)CCN(CCCOc2ccccc2C(C)(C)C)C3=O)cn1 [Example 32, 2-[3-(2-tert-butylphenoxy)propyl]-7-(4-methyl-1H-imidazol-1-yl)-3,4-dihydro-2H-pyrido[1,2-a]pyrazine-1,6-dione, trifluoroacetate salt]	143
Cc1cn(-c2ccc3n(c2=O)CCN(CCOc2cccc(Cl)c2Cl)C3=O)cn1 [Example 33, 2-[2-(2,3-dichlorophenoxy)ethyl]-7-(4-methyl-1H-imidazol-1-yl)-3,4-dihydro-2H-pyrido[1,2-a]pyrazine-1,6-dione, trifluoroacetate salt]	194
Cc1cn(-c2ccc3n(c2=O)CCN(CCOc2ccccc2-c2ccccc2)C3=O)cn1 [Example 34, 2-[2-(biphenyl-2-yloxy)ethyl]-7-(4-methyl-1H-imidazol-1-yl)-3,4-dihydro-2H-pyrido[1,2-a]pyrazine-1,6-dione, trifluoroacetate salt]	262
Cc1cn(-c2ccc3n(c2=O)CCN(CCOc2ccc(F)c(C(F)(F)F)c2Cl)C3=O)cn1 [Example 35, 2-{2-[2-chloro-4-fluoro-3-(trifluoromethyl)phenoxy]ethyl}-7-(4-methyl-1H-imidazol-1-yl)-3,4-dihydro-2H-pyrido[1,2-a]pyrazine-1,6-dione, trifluoroacetate salt]	133
Cc1cn(-c2ccc3n(c2=O)CCN(CCOc2ccccc2-c2csc(C)n2)C3=O)cn1 [Example 36, 7-(4-methyl-1H-imidazol-1-yl)-2-{2-[2-(2-methyl-1,3-thiazol-4-yl)phenoxy]ethyl}-3,4-dihydro-2H-pyrido[1,2-a]pyrazine-1,6-dione, trifluoroacetate salt]	302
Cc1cn(-c2ccc3n(c2=O)CCN(CCOc2ccccc2-c2sncc2C)C3=O)cn1 [Example 37, 7-(4-methyl-1H-imidazol-1-yl)-2-{2-[2-(4-methylisothiazol-5-yl)phenoxy]ethyl}-3,4-dihydro-2H-pyrido[1,2-a]pyrazine-1,6-dione, trifluoroacetate salt]	219
Cc1ccc(OCCN2CCn3c(ccc(-n4cnc(C)c4)c3=O)C2=O)c(-c2cc(C(F)(F)F)on2)c1 [Example 38, 7-(4-methyl-1H-imidazol-1-yl)-2-(2-{4-methyl-2-[5-(trifluoromethyl)isoxazol-3-yl]phenoxy}ethyl)-3,4-dihydro-2H-pyrido[1,2-a]pyrazine-1,6-dione, trifluoroacetate salt]	293
Cc1cn(-c2ccc3n(c2=O)CCN(CCOc2ccccc2-c2cc(C(F)(F)F)on2)C3=O)cn1 [Example 39, 7-(4-methyl-1H-imidazol-1-yl)-2-(2-{2-[5-(trifluoromethyl)isoxazol-3-yl]phenoxy}ethyl)-3,4-dihydro-2H-pyrido[1,2-a]pyrazine-1,6-dione, trifluoroacetate salt]	525
Cc1cn(-c2ccc3n(c2=O)CCN(CCOc2ccccc2-c2csc(C(F)(F)F)n2)C3=O)cn1 [Example 40, 7-(4-methyl-1H-imidazol-1-yl)-2-(2-{2-[2-(trifluoromethyl)-1,3-thiazol-4-yl]phenoxy}ethyl)-3,4-dihydro-2H-pyrido[1,2-a]pyrazine-1,6-dione]	19.6
Cc1cn(-c2ccc3n(c2=O)CCN(CCOc2ccccc2-c2coc(C)n2)C3=O)cn1 [Example 41, 7-(4-methyl-1H-imidazol-1-yl)-2-{2-[2-(2-methyl-1,3-oxazol-4-yl)phenoxy]ethyl}-3,4-dihydro-2H-pyrido[1,2-a]pyrazine-1,6-dione, trifluoroacetate salt]	156
Cc1cn(-c2ccc3n(c2=O)CCN(CCOc2cccc4oc5ccccc5c24)C3=O)cn1 [Example 42, 2-[2-(dibenzo[b,d]furan-1-yloxy)ethyl]-7-(4-methyl-1H-imidazol-1-yl)-3,4-dihydro-2H-pyrido[1,2-a]pyrazine-1,6-dione, trifluoroacetate salt]	5.31
Cc1cn(-c2ccc3n(c2=O)CCN(CCOc2ccc(Cl)cc2-c2ccon2)C3=O)cn1 [Example 43, 2-[2-(4-chloro-2-isoxazol-3-ylphenoxy)ethyl]-7-(4-methyl-1H-imidazol-1-yl)-3,4-dihydro-2H-pyrido[1,2-a]pyrazine-1,6-dione, trifluoroacetate salt]	283
